Measured values reported in patent publication US4456593A, “Ristocetin .psi.-aglycone as an antibacterial agent” (Abbott Laboratories, priority 1982, dated 1984).
Where “and” joins values, the source holds several entries; their conditions need not be identical. Equal values may be shown once.

Experiments:
E. coli (J) = experiment: Anti-infective Test - Cure of Acute Mouse Bacterial Infection (mouse protection), E. coli; type: in vivo; details: E. coli (J) intraperitoneal infection in female Swiss albino mice; route I.V.; dosed 1 and 5 hours post-infection; observed seven days
Experimental: (§1) Anti-infective Test--Cure of Acute Mouse Bacterial Infection
(§2) To determine the ability of potential anti-microbial agents to cure mice of an otherwise lethal infection.
Bacterial strains used in this test have been previously tested and, if necessary, adapted to mice and are maintained on brain heart infusion (BHI) agar slants at 4° C. Tubes of BHI broth are inoculated from the slants and incubated for 18 hours at 37° C. Serial ten-fold dilutions of this culture are made in BHI broth. The bacterial suspensions used to infect mice are obtained by making the final ten-fold dilution in 5 percent aqueous hog gastric mucin (American Laboratories Incorporated). […]
Groups T1 through T4 are used to monitor the strength of the infection actually used in this experiment. […] These groups are observed for seven days, mortalities are recorded and used to determine the number of challenge LD50's (within ten-fold limits) present in the standard inoculum used to infect medicated groups of animals.
Groups T5 through T9 are infected intraperitoneally with the standard inoculum. […] The animals are observed for seven days and mortalities are recorded. […]
CD50's (the total dose, in mg./kg., required to cure half the animals) are calculated by standard statistical methods and are reported with 95 percent confidence limits where these are obtainable or annotated with PS (poor slope) where they are not. […]

S. aureus = experiment: Anti-infective Test - Cure of Acute Mouse Bacterial Infection (mouse protection), S. aureus; type: in vivo; details: for CD50 (curative dose50, total dose required to cure half the animals): dosed 1 and 5 hours post-infection, 95 percent confidence limits in brackets
Experimental: as §1, §2
Bacterial strains used in this test have been previously tested and, if necessary, adapted to mice and are maintained on brain heart infusion (BHI) agar slants at 4° C. Tubes of BHI broth are inoculated from the slants and incubated for 18 hours at 37° C. Serial ten-fold dilutions of this culture are made in BHI broth. The bacterial suspensions used to infect mice are obtained by making the final ten-fold dilution in 5 percent aqueous hog gastric mucin (American Laboratories Incorporated). Mice are infected by an intraperitoneal injection of 0.75 ml. of the resulting suspension. The dilution of test organism selected (standard inoculum) is based on prior experience with that organism and is usually 10-100-fold more concentrated than the LD50 dilution, i.e., that concentration which when administered as described above causes 50 percent mortalities.
The antimicrobial test substance is dissolved at the desired concentration in a suitable vehicle (sterile water, unless otherwise specified) and four serial, two-fold dilutions of this solution are made with the vehicle.
In dosing the animals, all mice are considered to weigh 20 grams. The volume administered is always 0.5 ml. at 1 and 5 hours post-infection (total of 1.0 ml.), with half of the total dose given at each time.
Administration of Test Substances:
The test substance may be administered by any of the following routes:
2. Subcutaneously, at the nape of the neck,
3. Intramuscularly in the thigh,
4. Intravenously in the tail vein.
Female Swiss albino mice weighing 18 to 20 grams are divided randomly into groups of ten animals and housed one group to a cage. Food (standard mouse pellets) and water are supplied ad lib throughout the test. All animals are sacrificed at the conclusion of the test.
Group T0 is neither infected nor treated, but is observed for seven days. If more than one mortality occurs in this group, the data will be reviewed to determine is there is cause to invalidate the test.
Groups T1 through T4 are used to monitor the strength of the infection actually used in this experiment. These groups are infected but untreated. Group T1 is infected with the standard inoculum, and groups T2 through T4 are infected with successive ten-fold dilutions of the organism prepared such that only the final dilution in each case is made with 5 percent aqueous hog gastric mucin. These groups are observed for seven days, mortalities are recorded and used to determine the number of challenge LD50's (within ten-fold limits) present in the standard inoculum used to infect medicated groups of animals.
Groups T5 through T9 are infected intraperitoneally with the standard inoculum. Each group is treated with one of the two-fold dilutions of the test substance by a specified route of administration at 1 hour and 5 hours post infection. The animals are observed for seven days and mortalities are recorded.
Further sets of five groups of animals are infected and treated in the same manner as groups T5 through T9 for each additional test substance studied.
CD50's (the total dose, in mg./kg., required to cure half the animals) are calculated by standard statistical methods and are reported with 95 percent confidence limits where these are obtainable or annotated with PS (poor slope) where they are not.
This test is performed in primary and secondary variations. […]

[1] = S. aureus (S) intraperitoneal infection in female Swiss albino mice, route I.V., observed seven days

Row | Compound | CD50 (curative dose50, total dose required to cure half the animals) (E. coli (J)) [mg/kg] | Percent Surviving Mice With Varying Drug Dose (S. aureus; S. aureus (S) infection in mice, route I.V., dose of this cell not printed as text) [%] | CD50 (curative dose50, total dose required to cure half the animals) (S. aureus; S. aureus (SC) intraperitoneal infection in female Swiss albino mice, route cell is a drawing (not readable)) | CD50 (curative dose50, total dose required to cure half the animals) (S. aureus; [1]) | CD50 (curative dose50, total dose required to cure half the animals) (S. aureus; S. aureus (S) intraperitoneal infection in female Swiss albino mice, route S.C., observed seven days)
1 | COC(=O)[C@H]1NC(=O)[C@H]2NC(=O)[C@H](NC(=O)[C@@H]3NC(=O)[C@H]4NC(=O)[C@H](NC(=O)[C@H](N)c5ccc(O)c(c5)Oc5cc4cc(O)c5C)[C@H](O)c4ccc(cc4)Oc4cc3cc(c4O)Oc3ccc(cc3)[C@H]2O)c2ccc(O)c(c2)-c2c(O)cc(O)cc21 [Compound 2, Ristocetin aglycone] | 50 | 90 | 2.7 (1.8-4.1) mg./kg. |  | 
2 | O--demethylristocetin aglycone [Compound 3] |  |  |  | 9.3 (5.9-17.3) mg./kg. | 
3 | Ristocetin [Compound 1] | 50 |  |  | 4.1 mg./kg. and 6.6 mg./kg. and 5.6 (4.2-7.5) mg./kg. and 6 mg./kg. | 3.7 (2.4-5.7) mg./kg.
